Reference: patent US9872875B2, “Component and method for treating viral disease” (Institut Pasteur of Shanghai, Chinese Academy of Sciences, priority 2012, dated 2018)

How the values were obtained:
P2X1 receptor = target: T1, P2X1 receptor (Homo sapiens, UniProt P51575); conditions: Table 9, antagonists; cited from earlier work
T1 sequence (P51575 1-399): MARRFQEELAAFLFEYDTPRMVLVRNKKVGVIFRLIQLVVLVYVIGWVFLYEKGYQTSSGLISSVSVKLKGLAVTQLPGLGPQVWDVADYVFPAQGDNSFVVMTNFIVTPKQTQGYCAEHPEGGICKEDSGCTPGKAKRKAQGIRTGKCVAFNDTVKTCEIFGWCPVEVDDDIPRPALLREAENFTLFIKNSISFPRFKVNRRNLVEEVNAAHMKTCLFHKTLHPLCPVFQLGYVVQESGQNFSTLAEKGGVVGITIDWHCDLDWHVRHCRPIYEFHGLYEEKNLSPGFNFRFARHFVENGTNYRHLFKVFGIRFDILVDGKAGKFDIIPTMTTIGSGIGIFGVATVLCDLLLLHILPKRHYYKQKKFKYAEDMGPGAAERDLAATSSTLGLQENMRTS

P2Y1 = P2Y1 (Homo sapiens, UniProt P47900); conditions: Table 9, antagonists; cell names P2Y1; cited from earlier work
Sequence of P2Y1 (P47900 whole entry, species assumed): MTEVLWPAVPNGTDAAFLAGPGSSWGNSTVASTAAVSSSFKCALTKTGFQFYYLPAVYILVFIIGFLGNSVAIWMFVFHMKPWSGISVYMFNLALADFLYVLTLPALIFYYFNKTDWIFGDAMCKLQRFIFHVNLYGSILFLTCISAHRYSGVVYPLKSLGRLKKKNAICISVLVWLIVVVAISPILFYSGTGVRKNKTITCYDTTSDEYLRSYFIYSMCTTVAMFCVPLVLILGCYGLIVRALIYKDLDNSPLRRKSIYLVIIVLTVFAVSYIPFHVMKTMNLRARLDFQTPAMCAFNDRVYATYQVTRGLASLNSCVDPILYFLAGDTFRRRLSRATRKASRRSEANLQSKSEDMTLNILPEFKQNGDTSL

P2X3 receptor = target: T2, P2X3 receptor (Homo sapiens, UniProt P56373); conditions: Table 9, antagonists; cited from earlier work
T2 sequence (P56373 1-397): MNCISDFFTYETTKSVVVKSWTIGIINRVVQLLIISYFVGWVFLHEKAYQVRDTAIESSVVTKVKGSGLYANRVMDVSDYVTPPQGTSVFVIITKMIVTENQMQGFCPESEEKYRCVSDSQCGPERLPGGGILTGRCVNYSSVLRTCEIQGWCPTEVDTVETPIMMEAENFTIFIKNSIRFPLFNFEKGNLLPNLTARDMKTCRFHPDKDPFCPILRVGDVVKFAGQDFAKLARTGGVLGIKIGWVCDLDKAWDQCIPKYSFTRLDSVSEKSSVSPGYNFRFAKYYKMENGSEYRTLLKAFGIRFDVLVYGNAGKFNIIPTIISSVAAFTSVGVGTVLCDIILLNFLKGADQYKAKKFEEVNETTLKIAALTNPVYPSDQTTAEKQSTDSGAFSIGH

EV71 = test: Effects of other antagonists and agonists on EV71 (Table 9); assay type: cell-based, Enterovirus 71; design: key: “NO” indicates there is negative

In the case of `CNc1ncnc2c1ncn2[C@H]1C[C@H](OP(=O)(O)O)[C@@H](COP(=O)(O)O)O1` [MRS 2179], the “P2X receptors 1” value (P2X1 receptor) is listed as “✓ (✓ activating concentration >300 nM)”, the P2Y (P2Y1) is listed as “✓ ✓ P2Y1 (✓ ✓ activating concentration 10 nM-300 nM)” and the “P2X receptors 3” value (P2X3 receptor) is listed as “✓ (✓ activating concentration >300 nM)”. The “EV71 Log10 reduction” value (EV71) was “NO”.
